Assay [1] addresses T1, human BRD4 bromodomain II (Homo sapiens, UniProt O60885).
T1 construct: human BRD4 bromodomain II [based on Genbank NM_058243, residues 349-460]; host or cells: E. coli
Kind of assay: Bromodomain binding assay (AlphaScreen), BRD4 BDII. In a few lines: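 Read-out is AlphaScreen signal (ex 680 nm, em 520-620 nm) from streptavidin donor beads on a biotinylated acetylated histone H4 (aa 1-21) peptide and nickel acceptor beads on the His6-tagged bromodomain. IC50 values come from curve fits of percentage peptide binding against compound concentration.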
A general note: Alpha assays give light when donor and acceptor beads are brought close together.

The subject of assay [2] is human SKM-1 acute myeloid leukemia cells. Put plainly: SKM-1 antiproliferation cell-based assay (ATPlite). The following applies: Homo sapiens. The protocol: The cell-based assay indirectly measures cell density (and therefore proliferation and/or survival) by detecting total ATP concentration in a homogeneous format. Briefly, human SKM-1 acute myeloid leukemia cells (Leibniz Institute DSMZ #ACC 547) proliferating in log phase are collected by centrifugation, re-suspended in culture media (RPMI 1640/15% FBS/100 U/mL penicillin/100 μg/mL streptomycin) and diluted to 34722 cells/mL in media after counting. Then 180 μL cells are plated per well into a 96-well tissue-culture treated, clear bottom plate (Coming #3603). A 96-well compound plate (Corning #3357) is then generated by serial dilution of compounds into DMSO over nine concentrations and adding separate negative (DMSO) and positive control (reference compound) wells. Each compound concentration is tested in triplicate. First, 1 μL from each well of the compound plate is added to 99 μL culture media in an intermediate plate and mixed by pipetting. Then 20 μL of the diluted compounds in media are added to the assay plate containing the cells. The assay plate is maintained for 4 days in a standard cell culture incubator. At the end of the incubation period, 100 μL ATPlite Istep (PerkinElmer) is added to the assay plate wells, and the resulting luminescence is detected using an Infinite M1000 or a Spark multimode plate reader (Tecan). Data analysis is performed in Prism (GraphPad Software). For curve fitting, a non-linear regression, variable slope equation is used to calculate cellular IC50s.

Where [3] appears, read: AlphaScreen assay, Table C2, read-out: BRD4 BDII IC50.
Setting [4] is: SKM-1, 96 h, SKM-1 antiproliferation assay, 4 days, Table C2.
[5] abbreviates: BRD4 BDII AlphaScreen assay, read-out: BRD4 BD2 IC50.
Where [6] appears, read: SKM-1, SKM-1 antiproliferation assay.

Where two headings read alike, the source gives them in different places.

In general, IC50 refers to the midpoint of a concentration-inhibition curve. By GI50 is commonly meant the concentration giving 50% growth inhibition. A low value points to more potent growth inhibition. Turning to `Cc1ccc(-c2cc(F)cc(-c3ccc(-n4ccn(C)c4=O)c(Cl)c3)c2O)cc1N1CC(C)(O)C1` [Example 845, 1-(3-chloro-5′-fluoro-2′-hydroxy-3″-(3-hydroxy-3-methylazetidin-1-yl)-4″-methyl-[1,1′:3′,1″-terphenyl]-4-yl)-3-methyl-1H-imidazol-2(3H)-one], the IC50 in assay [1] (setting [3]) was 1 to 10 nM. For the same compound, the GI50 in assay [2] (setting [4]) was in the range of 30 to 300 nM.

With `CC(C)N1CCN(c2cc(-c3cc(F)cc(-c4ccc(-n5ccn(C)c5=O)c(Cl)c4)c3O)cnn2)CC1` [Example 797, 1-(3-chloro-5′-fluoro-2′-hydroxy-3′-(6-(4-isopropylpiperazin-1-yl)pyridazin-4-yl)-[1,1′-biphenyl]-4-yl)-3-methyl-1H-imidazol-2(3H)-one], in assay [1] (setting [3]), the half-inhibitory concentration (IC50) lay in the range of 0.01 to 1 nM. Further, the GI50 in assay [2] (setting [4]) lay in the range of 0.3 to 30 nM.

`C[C@@H]1CN(c2cc(-c3cc(F)cc(-c4ccc(-n5ccn(C)c5=O)c(Cl)c4)c3O)ccn2)CCO1` [Example 673, (R)-1-(3-chloro-5′-fluoro-2′-hydroxy-3′-(2-(2-methylmorpholino)pyridin-4-yl)-[1,1′-biphenyl]-4-yl)-3-methyl-1H-imidazol-2(3H)-one]: the IC50 in assay [1] (setting [3]) was in the range of 0.01 to 1 nM. The 50% growth inhibitory concentration (GI50) in assay [2] (setting [4]) lay in the range of 30 to 300 nM.

Take `CC(=O)Nc1ccc(-c2cccc(-c3cccc(N4CCN[C@H](C)C4)c3)c2O)cc1F` [Example 193, (R)-N-(3-fluoro-2′-hydroxy-3″-(3-methylpiperazin-1-yl)-[1,1′:3′,1″-terphenyl]-4-yl)acetamide]: the half-inhibitory concentration (IC50) in assay [1] (setting [3]) lay in the range of 1 to 10 nM. The 50% growth inhibitory concentration (GI50) in assay [2] (setting [4]) lay in the range of 300 to 3000 nM.

On to `CO[C@H]1COC(=O)N1c1ccc(-c2cc(F)cc(-c3ccnc(N4CCNCC4)c3)c2O)cc1Cl` [Example 506, (S)-3-(3-chloro-5′-fluoro-2′-hydroxy-3′-(2-(piperazin-1-yl)pyridin-4-yl)-[1,1′-biphenyl]-4-yl)-4-methoxyoxazolidin-2-one], for which the IC50 in assay [1] (setting [3]) lay within 10 to 100 nM. Besides, the GI50 in assay [2] (setting [4]) lay in the range of 300 to 3000 nM.

As for `CN1CCN(c2ccc(-c3cc(F)cc(-c4ccnc(N5CC[C@H](N)C5)c4)c3O)cc2Cl)C1=O` [Example 353, (S)-1-(3′-(2-(3-aminopyrrolidin-1-yl)pyridin-4-yl)-3-chloro-5′-fluoro-2′-hydroxy-[1,1′-biphenyl]-4-yl)-3-methylimidazolidin-2-one], the IC50 in assay [1] (setting [3]) is 1 to 10 nM. The compound further gave a GI50 in assay [2] (setting [4]) of 30 to 300 nM.

As for `O=C1CCCN1c1ccc(-c2c[nH]cc(-c3cccc(N4CCNCC4)c3)c2=O)cc1F` [Example 307, 3-(3-fluoro-4-(2-oxopyrrolidin-1-yl)phenyl)-5-(3-(piperazin-1-yl)phenyl)pyridin-4(1H)-one], the 50% inhibitory concentration (IC50) in assay [1] (setting [3]) was over 100 nM. The concentration for 50% growth inhibition (GI50) in assay [2] (setting [4]) was at least 3000 nM.

On to `C[C@@H]1CN(c2cc(-c3cc(F)cc(-c4ccc(-n5ccn(C)c5=O)c(Cl)c4)c3O)ccn2)C[C@H](C)N1` [Example 555, 1-(3-chloro-3′-(2-((3R,5S)-3,5-dimethylpiperazin-1-yl)pyridin-4-yl)-5′-fluoro-2′-hydroxy-[1,1′-biphenyl]-4-yl)-3-methyl-1H-imidazol-2(3H)-one], for which the half-inhibitory concentration (IC50) in assay [1] (setting [3]) was 1 to 10 nM. For the same compound, the GI50 in assay [2] (setting [4]) is 0.3 to 30 nM.

`[2H]C([2H])([2H])C(=O)Nc1ccc(-c2cc(C)nc(-c3cccc(N4CCN(C(C)(C)C)CC4)c3)c2O)cc1Cl` [Example 1008, N-(4-(2-(3-(4-(tert-butyl)piperazin-1-yl)phenyl)-3-hydroxy-6-methylpyridin-4-yl)-2-chlorophenyl)-2,2,2-trideuteroacetamide]: the half-maximal inhibitory concentration (IC50) in assay [1] (setting [5]) was in the range of 1 to 10 nM. For the same compound, the GI50 in assay [2] (setting [6]) was 0.3 to 30 nM.

For `Cn1ccn(-c2ccc(-c3cc(F)cc(-c4ccnc(N5CC6NCCOC6C5)c4)c3O)cc2Cl)c1=O` (centres unmarked) [Example 648, 1-(3-chloro-5′-fluoro-3′-(2-(hexahydropyrrolo[3,4-b][1,4]oxazin-6(2H)-yl)pyridin-4-yl)-2′-hydroxy-[1,1′-biphenyl]-4-yl)-3-methyl-1H-imidazol-2(3H)-one], in assay [1] (setting [3]), the IC50 fell in the range of 0.01 to 1 nM. Further, in assay [2] (setting [4]), the GI50 was 0.3 to 30 nM.

As to `Cn1ccn(-c2ccc(-c3cc(F)cc(-c4cccc(N5CC[C@@](C)(N)C5)c4)c3O)cc2Cl)c1=O` [Example 758, (R)-1-(3″-(3-amino-3-methylpyrrolidin-1-yl)-3-chloro-5′-fluoro-2′-hydroxy-[1,1′:3′,1″-terphenyl]-4-yl)-3-methyl-1H-imidazol-2(3H)-one], in assay [1] (setting [3]), the half-inhibitory concentration (IC50) lay within 0.01 to 1 nM. In assay [2] (setting [4]), this compound showed a 50% growth inhibitory concentration (GI50) of 0.3 to 30 nM.

For `C[C@@H]1CN(c2cc(-c3cccc(-c4ccc(N5CCN(C)C5=O)c(Cl)c4)c3O)ccn2)CCN1` [Example 294, (R)-1-(3-chloro-2′-hydroxy-3′-(2-(3-methylpiperazin-1-yl)pyridin-4-yl)-[1,1′-biphenyl]-4-yl)-3-methylimidazolidin-2-one], in assay [1] (setting [3]), the IC50 fell in the range of 1 to 10 nM. This compound also displayed a GI50 in assay [2] (setting [4]) of 30 to 300 nM.

As to `Cc1cc(-c2ccnc(N3CCN[C@H](C)C3)c2)c(O)c(-c2ccc(-n3ccn(C)c3=O)c(Cl)c2)c1` [Example 500, (R)-1-(3-chloro-2′-hydroxy-5′-methyl-3′-(2-(3-methylpiperazin-1-yl)pyridin-4-yl)-[1,1′-biphenyl]-4-yl)-3-methyl-1H-imidazol-2(3H)-one], the 50% inhibitory concentration (IC50) in assay [1] (setting [3]) fell in the range of 1 to 10 nM. In addition, the 50% growth inhibitory concentration (GI50) in assay [2] (setting [4]) is 0.3 to 30 nM.

With `Cc1ncc(-c2cc(F)cc(-c3ccc(-n4ccn(C)c4=O)c(Cl)c3)c2O)cc1N1CC2CCC(C1)N2C(C)C` [Example 835, 1-(3-chloro-5′-fluoro-2′-hydroxy-3′-(5-(8-isopropyl-3,8-diazabicyclo[3.2.1]octan-3-yl)-6-methylpyridin-3-yl)-[1,1′-biphenyl]-4-yl)-3-methyl-1H-imidazol-2(3H)-one], the IC50 in assay [1] (setting [3]) lay in the range of 1 to 10 nM. Besides, in assay [2] (setting [4]), the concentration for 50% growth inhibition (GI50) was in the range of 0.3 to 30 nM.

With `CC(=O)Nc1ccc(-c2cc(F)cc(-c3ccnc(N4CCNCC4)c3)c2O)cc1F` [Example 224, N-(3,5′-difluoro-2′-hydroxy-3′-(2-(piperazin-1-yl)pyridin-4-yl)-[1,1′-biphenyl]-4-yl)acetamide], the IC50 in assay [1] (setting [3]) lay within 1 to 10 nM. In assay [2] (setting [4]), this compound gave a concentration for 50% growth inhibition (GI50) of 30 to 300 nM.

Turning to `COc1ncc(-c2cc(F)cc(-c3ccc(-n4c(C)cn(C)c4=O)c(Cl)c3)c2O)cc1N1CCN(C(C)(C)C)CC1` [Example 941, 3-(3′-(5-(4-(tert-butyl)piperazin-1-yl)-6-methoxypyridin-3-yl)-3-chloro-5′-fluoro-2′-hydroxy-[1,1′-biphenyl]-4-yl)-1,4-dimethyl-1H-imidazol-2(3H)-one], the IC50 in assay [1] (setting [5]) is 1 to 10 nM. This compound also yielded a GI50 in assay [2] (setting [6]) of 0.3 to 30 nM.

For the compound `O=C1CCC(=O)N1c1ccc(-c2cccc(-c3cncc(N4CCNCC4)c3)c2O)cc1F` [Example 257, 1-(3-fluoro-2′-hydroxy-3′-(5-(piperazin-1-yl)pyridin-3-yl)-[1,1′-biphenyl]-4-yl)pyrrolidine-2,5-dione], the 50% inhibitory concentration (IC50) in assay [1] (setting [3]) was over 100 nM. This compound registered a GI50 in assay [2] (setting [4]) of at least 3000 nM.

On to `Cn1ccn(-c2ccc(-c3cc(F)cc(-c4ccnc(N5CCN(CC(=O)O)CC5)c4)c3O)cc2Cl)c1=O` [Example 521, 2-(4-(4-(3′-chloro-5-fluoro-2-hydroxy-4′-(3-methyl-2-oxo-2,3-dihydro-1H-imidazol-1-yl)-[1,1′-biphenyl]-3-yl)pyridin-2-yl)piperazin-1-yl)acetic acid], for which, in assay [1] (setting [3]), the half-maximal inhibitory concentration (IC50) was 1 to 10 nM. In assay [2] (setting [4]), the GI50 lay within 30 to 300 nM.

On to `Cc1cc(-c2cccc(-c3ccc(N4CCN(C)C4=O)c(Cl)c3)c2O)cc(N2CCNCC2)n1` [Example 338, 1-(3-chloro-2′-hydroxy-3′-(2-methyl-6-(piperazin-1-yl)pyridin-4-yl)-[1,1′-biphenyl]-4-yl)-3-methylimidazolidin-2-one], for which, in assay [1] (setting [3]), the IC50 lay in the range of 1 to 10 nM. In assay [2] (setting [4]), the concentration for 50% growth inhibition (GI50) was in the range of 30 to 300 nM.

Values taken from patent US20250179059A1 (The Regents of the University of California, priority 2021, published 2025).
